Assay results published in patent US20220213119A1, “THIENOHETEROCYCLIC DERIVATIVE, PREPARATION METHOD THEREFOR AND MEDICAL USE THEREOF” (Jiangsu Hengrui Medicine Ca, Lid., priority 2019, published 2022).

What was measured:
Colo205 cells = assay: In vitro proliferation inhibition test on Colo205 tumor cells (CellTiter-Glo); assay type: cell-based; settings: Homo sapiens, COLO 205, 72 h; Colo205 cell proliferation, 3 days of culture, CTG
Method: The purpose of this experiment is to test the inhibitory activity of the compounds on the proliferation of Colo205 cells (CCL-222, ATCC) in vitro. The cells were treated with different concentrations of compounds in vitro. After 3 days of culture, the cell proliferation was detected using CTG (CellTiter-Glo® Luminescent Cell Viability Assay, Promega, catalog number: G7573) reagent. The in vitro activity of the compounds was evaluated according to the IC50 value.
In the following, taking the in vitro proliferation inhibition test method of Colo205 cells as an example, the method in the present disclosure for testing the in vitro proliferation inhibitory activity of the compounds of the present disclosure is described. This method is also applicable to, but not limited to, the in vitro proliferation inhibitory activity test on other tumor cells.
Colo205 cells were digested, centrifuged and then resuspended. The single cell suspension was mixed well, and the density of viable cells was adjusted to 5.0×10^4 cells/ml with cell culture medium (RPMI1640+2% FBS), and 95 μl/well was added to a 96-well cell culture plate. Only 100 μl medium was added to the peripheral wells of the 96-well plate. The culture plate was incubated in an incubator for 24 hours (37° C., 5% CO2).
The compound was dissolved in DMSO (dimethyl sulfoxide, Shanghai Titan Scientific Co., Ltd.) and prepared into a stock solution with an initial concentration of 20 mM. The initial concentration of the small molecule compound is 2 mM, and then 4-fold diluted into to 9 points, and the tenth point is DMSO. Another 96-well plate was taken, 90 μl of cell culture medium (RPMI1640+2% FBS) was added to each well, then 10 μl of different concentrations of the test sample was added to each well, the mixture was mixed well, and then 5 μl of different concentrations of the test sample was added to the cell culture plate, and each sample has two duplicate holes. The culture plate was incubated in the incubator for 3 days (37° C., 5% CO2). The 96-well cell culture plate was taken out, 50 μl CTG solution was added to each well, and the plate was incubated for 10 minutes at room temperature. In a microplate reader (BMG labtech, PHERAstar FS), chemiluminescence was measured with the microplate reader.
(§1) The data were processed and analyzed with Microsoft Excel, Graphpad Prism 5.

ERK2 = target: T1, ERK2 (Homo sapiens, UniProt P28482); assay: ERK2 enzyme activity test (ADP-Glo Kinase Assay); assay type: biochemical; settings: chemiluminescence
T1 construct: purchased R&D 1230-KS-010
Method: (§2) The purpose of this experiment is to detect the inhibitory ability of the compounds on the ERK2 enzyme activity and evaluate the activity of the compounds in vitro according to IC50. The ADP-Glo™ Kinase Assay Kit was used in this experiment. Under the action of enzyme, the substrate was phosphorylated and ADP was produced at the same time. The ADP-Glo Reagent was added to remove unreacted ATP in the reaction system. The kinase detection reagent was used to detect the ADP produced by the reaction. In the presence of the compound, the inhibition rate of the compound was calculated by measuring the signal value.
Enzyme and substrate preparation: ERK2 (1230-KS-010, R&D) and substrate (Custom peptides, Gill Biochemical) were prepared to be 0.75 ng/μl and 1500 μM in the buffer (40 mM Tris, 20 mM MgCl2, 0.1 mg/mL BSA, 50 μM DTT). The enzyme solution and substrate solution were then prepared into a mixed solution at a volume ratio of 2:1 for later use. ATP was diluted to 500 μM with the buffer. The compounds were dissolved in DMSO (dimethyl sulfoxide, Shanghai Titan Scientific Co., Ltd.) to prepare a stock solution with an initial concentration of 20 mM, and then Bravo was used to prepare solutions of the compounds. Finally, a 3 μL of a mixed solution of enzyme and substrate, and 1 μL of different concentrations of the compound (the initial concentration is 50 μM, 4-fold dilution) were added to each well of the 384-well plate, and the plate was incubated at 30° C. for 10 minutes, and finally 1 μL of 500 μM ATP solution was added to each well, and the plate was incubated at 30° C. for 2 hours. Then 5 μL of ADP-Glo was added, and the plate was incubated at 30° C. for 40 minutes. Then 10 μL of Kinase detection buffer was added, and the plate was incubated at 30° C. for 40 minutes. The 384-well plate was taken out and placed in a microplate reader (BMG labtech, PHERAstar FS), and the chemiluminescence was measured by the microplate reader.
as §1

ERK1 = target: T2, ERK1 (Homo sapiens, UniProt P27361); assay: ERK1 enzyme activity test (ADP-Glo Kinase Assay); assay type: biochemical; settings: chemiluminescence
T2 construct: purchased R&D 1879-KS-010
Method: as §2, with “ERK1” for “ERK2”
Enzyme and substrate preparation: ERK1 (1879-KS-010, R&D) and substrate (AS-61777, anaspec) were prepared to be 0.75 ng/μl and 100 μM respectively in the buffer. The enzyme solution and substrate solution were then prepared into a mixed solution at a volume ratio of 2:1 for later use. ATP was diluted to 300 μM with the buffer. The compounds were dissolved in DMSO (dimethyl sulfoxide, Shanghai Titan Scientific Co., Ltd.) to prepare a stock solution with an initial concentration of 20 mM, and then Bravo was used to prepare solutions of the compounds. Finally, a 3 μL of a mixed solution of enzyme and substrate, and 1 μL of different concentrations of the compound (the initial concentration is 50 μM, 4-fold dilution) were added to each well of the 384-well plate, and the plate was incubated at 30° C. for 10 minutes, and finally 1 μL of 300 μM ATP solution was added to each well, and the plate was incubated at 30° C. for 2 hours. Then 5 μL of ADP-Glo was added, and the plate was incubated at 30° C. for 40 minutes. Then 10 μL of Kinase detection buffer was added, and the plate was incubated at 30° C. for 40 minutes. The 384-well plate was taken out and placed in a microplate reader (BMG labtech, PHERAstar FS), and the chemiluminescence was measured by the microplate reader.
as §1

[1] = Pharmacokinetics assay in mice; assay type: in vivo; settings: mouse, po, C57 mice (female), intragastric, 2 mg/kg, plasma; for Vd/F: read-out: Apparent distribution volume Vz/F; for AUC: read-out: Area under curve AUC; for CL/F: read-out: Clearance CLz/F; for half-life: read-out: Half Life T1/2 (converted); for Cmax: read-out: Plasma Concentration Cmax; for MRT: read-out: Residence Time MRT
Method: Mice were used as the test animal. The drug concentration in plasma at different time points was determined by LC/MS/MS method after administration of compound 3-P2, compound 4-P2, compound 9-P2, compound 10-P2, compound 12 and compound 15. The pharmacokinetic behavior of the compounds of the present disclosure in mice was studied, and the pharmacokinetic characteristics were evaluated.
54 of C57 mice (female) were equally divided into 6 groups, which were purchased from Shanghai Jiesijie Laboratory Animal Co., Ltd., with the animal production license number: SOCK (Shanghai) 2013-0006.
A certain amount of compound was weighted, followed by the addition of 5% volume of DMSO and 5% Tween 80 to dissolve it, then followed by the addition of 90% normal saline to prepare a colorless and clear solution of 0.1 mg/mL.
After an overnight fast, C57 mice were intragastrically administered the test compound at an administration dose of 2 mg/kg and an administration volume of 0.2 ml/10 g.
The mice were intragastrically administered the test compounds. 0.1mL of blood was taken before the administration and at 0.25, 0.5, 1.0, 2.0, 4.0, 6.0, 8.0, 11.0, 24.0 hours after the administration. The blood was placed in a heparinized test tube, and centrifuged at 3500 rpm for 10 minutes. The plasma was separated and stored at −20° C.
The content of the test compound in the plasma of mice after […] administration of the test compound at different concentrations was determined: 25 μl of mouse plasma at each time point after the administration was taken, followed by the addition of 50 μl of the internal standard camptothecin solution (100 ng/mL) and 200 μl of acetonitrile. The resulting solution was vortex-mixed for 5 minutes, and centrifuged for 10 minutes (4000 rpm). 4μl of the supernatant was taken from the plasma samples for LC/MS/MS analysis.

T2 sequence (P27361 whole entry): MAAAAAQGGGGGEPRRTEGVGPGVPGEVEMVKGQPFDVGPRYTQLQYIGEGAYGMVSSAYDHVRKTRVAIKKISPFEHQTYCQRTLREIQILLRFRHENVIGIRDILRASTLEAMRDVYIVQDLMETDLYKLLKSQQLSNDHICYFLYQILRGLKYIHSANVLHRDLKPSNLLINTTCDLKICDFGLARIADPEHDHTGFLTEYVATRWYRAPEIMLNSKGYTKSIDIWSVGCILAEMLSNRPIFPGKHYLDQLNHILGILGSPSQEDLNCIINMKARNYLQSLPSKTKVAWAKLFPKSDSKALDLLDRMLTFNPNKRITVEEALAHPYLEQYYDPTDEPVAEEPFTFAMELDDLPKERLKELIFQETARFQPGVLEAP
T1 sequence (P28482 whole entry): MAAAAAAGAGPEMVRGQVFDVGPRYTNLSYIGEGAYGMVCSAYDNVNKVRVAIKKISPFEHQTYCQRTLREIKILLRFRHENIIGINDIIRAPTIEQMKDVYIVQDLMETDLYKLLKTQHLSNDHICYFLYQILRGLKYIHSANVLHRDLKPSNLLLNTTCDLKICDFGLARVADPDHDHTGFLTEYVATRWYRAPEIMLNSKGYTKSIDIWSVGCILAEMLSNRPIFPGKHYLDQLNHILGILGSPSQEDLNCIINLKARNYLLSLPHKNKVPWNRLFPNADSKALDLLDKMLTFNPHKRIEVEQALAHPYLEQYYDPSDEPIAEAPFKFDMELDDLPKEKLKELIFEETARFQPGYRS

Cc1cccc([C@@H](CO)NC(=O)CN2CCc3sc(-c4nc(Nc5ccnn5C)ncc4C)cc3C2=O)c1 [Example 7, (S)-N-(2-Hydroxy-1-(m-methylphenyl)ethyl)-2-(2-(5-methyl-2-((1-methyl-1H-pyrazol-5-yl)amino)pyrimidin-4-yl)-4-oxo-6,7-dihydrothieno[3,2-c]pyridin-5(4H)-yl)acetamide]
IC50 (Colo205 cells): 38 nM | IC50 (ERK2): 3 nM

Cc1cccc([C@@H](CO)NC(=O)[C@@H](C)N2CCc3sc(-c4nc(N[C@@H](C)CO)ncc4Cl)cc3C2=O)c1 [Example 13, (R)-2-(2-(5-Chloro-2-(((S)-1-hydroxypropan-2-yl)amino)pyrimidin-4-yl)-4-oxo-6,7-dihydrothieno[3,2-c]pyridin-5(4H)-yl)-N-((S)-2-hydroxy-1-(m-methylphenyl)ethyl)propionamide]
IC50 (Colo205 cells): 26 nM | IC50 (ERK2): 9 nM

COc1cc(F)cc([C@@H](CO)NC(=O)[C@@H](C)N2CCc3sc(-c4nc(NC5CCOCC5)ncc4C)cc3C2=O)c1 [Example 16, (R)-N-((S)-1-(3-Fluoro-5-methoxyphenyl)-2-hydroxyethyl)-2-(2-(5-methyl-2-((tetrahydro-2 H-pyran-4-yl)amino)pyrimidin-4-yl)-4-oxo-6,7-dihydrothieno[3,2-c]pyridin-5-(4H)-yl)prop ionamide]
IC50 (ERK2): 1 nM | IC50 (ERK1): 3 nM

COc1cc(F)cc([C@@H](CO)NC(=O)[C@@H](C)N2CCc3sc(-c4nc(N[C@@H](C)CO)ncc4C)cc3C2=O)c1 [Example 17, (R)-N-((S)-1-(3-Fluoro-5-methoxyphenyl)-2-hydroxyethyl)-2-(2-(2-(((S)-1-hydroxypropan-2-yl)amino)-5-methylpyrimidin-4-yl)-4-oxo-6,7-dihydrothieno[3,2-c]pyridin-5(4H)-yl)prop ionamide]
IC50 (Colo205 cells): 17 nM | IC50 (ERK2): 2 nM | IC50 (ERK1): 12 nM

C[C@H](C(=O)N[C@H](CO)c1cccc(Cl)c1)N1CCc2sc(-c3nc(NC4CCOCC4)ncc3Cl)cc2C1=O [Example 4-P2]
IC50 (Colo205 cells): 29 nM | IC50 (ERK2): 6 nM | Vd/F [1]: 8.09 L/kg | AUC [1]: 364 ng·h/mL | CL/F [1]: 91.5 mL/min/kg | half-life [1]: 1.02 h | Cmax [1]: 376 ng/mL | MRT [1]: 1.14 h

COc1cc(F)cc([C@@H](CO)NC(=O)[C@@H](C)N2CCc3sc(-c4ccnc(NC5CCOCC5)n4)cc3C2=O)c1 [Example 11, (R)-N-((S)-1-(3-Fluoro-5-methoxyphenyl)-2-hydroxyethyl)-2-(4-oxo-2-(2-((tetrahydro-2H-pyran-4-yl)amino)pyrimidin-4-yl)-6,7-dihydrothieno[3,2-c]pyridin-5(4H)-yl)-propionamide]
IC50 (Colo205 cells): 16 nM | IC50 (ERK2): 2 nM | IC50 (ERK1): 5 nM

Cc1cccc([C@@H](CO)NC(=O)[C@@H](C)N2CCc3sc(-c4nc(NC5CCOCC5)ncc4Cl)cc3C2=O)c1 [Example 3-P2, (R)-2-(2-(5-Chloro-2-((tetrahydro-2H-pyran-4-yl)amino)pyrimidin-4-yl)-4-oxo-6,7-dihydrothieno[3,2-c]pyridin-5(4H)-yl)-N-((S)-2-hydroxy-1-(m-methylphenyl)ethyl)propionamide]
IC50 (Colo205 cells): 26 nM | IC50 (ERK2): 4 nM | Vd/F [1]: 2.98 L/kg | AUC [1]: 914 ng·h/mL | CL/F [1]: 36.5 mL/min/kg | half-life [1]: 0.945 h | Cmax [1]: 708 ng/mL | MRT [1]: 1.16 h

O=C(CN1CCc2sc(-c3nc(NC4CCOCC4)ncc3Cl)cc2C1=O)N[C@H](CO)c1cccc(Cl)c1 [Example 1, (S)-2-(2-(5-Chloro-2-((tetrahydro-2H-pyran-4-yl)amino)pyrimidin-4-yl)-4-oxo-6,7-dihydrothieno[3,2-c]pyridin-5(4H)-yl)-N-(1-(3-chlorophenyl)-2-hydroxyethyl)acetamide]
IC50 (Colo205 cells): 8 nM | IC50 (ERK2): 1 nM

COc1cc(F)cc([C@@H](CO)NC(=O)[C@@H](C)N2CCc3sc(-c4nc(Nc5ccnn5C)ncc4Cl)cc3C2=O)c1 [Example 14, (R)-2-(2-(5-Chloro-2-((1-methyl-1H-pyrazol-5-yl)amino)pyrimidin-4-yl)-4-oxo-6,7-dihydrothieno[3,2-c]pyridin-5(4H)-yl)-N-((S)-1-(3-fluoro-5-methoxyphenyl)-2-hydroxyethyl)prop ionamide]
IC50 (Colo205 cells): 14 nM | IC50 (ERK2): 6 nM | IC50 (ERK1): 27 nM
